Columns and labels:
[1] = test system: normal NK cells expanded with K562-aAPC; assay: percent inhibition of viability; higher = more inhibition; conditions: 72 h, IL-2 2.5 ng/mL
Method: (§1)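 Drug sensitivity and resistance testing on K562-aAPC-expanded normal NK cells: 5 concentrations (10-fold steps over a 10,000-fold range), 72 h at 37 °C, viability by CellTiter-Glo normalised to DMSO and benzethonium chloride controls; DSS from the fitted curve.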

[2] = test system: normal NK cells expanded with K562-aAPC; assay: drug sensitivity score (DSS) (DSS units); higher = more sensitive; extreme values may be limits of the assay; conditions: 72 h; IL-2 2.5 ng/mL
Method: as §1

IMC-1 (IL-2 20 ng/mL) [3] = assay: percent inhibition of viability; higher = more inhibition; conditions: 72 h
[4] = test system: normal primary NK cells, pool 2 (3 donors) (IL-2 2.5 ng/mL); assay: as above; conditions: 72 h
[5] = test system: normal primary NK cells, pool 3 (3 donors) (IL-2 2.5 ng/mL); assay: as above; conditions: 72 h
YT (IL-2 2.5 ng/mL) [6] = assay: as above; conditions: 72 h
NK-92 (IL-2 2.5 ng/mL) [7] = assay: as above; conditions: 72 h
[8] = test system: normal primary NK cells, pool 1 (3 donors), resting (IL-2 0 ng/mL); assay: as above; conditions: 72 h
[9] = test system: normal primary NK cells, pool 1 (3 donors) (IL-2 2.5 ng/mL); assay: as above; conditions: 72 h
SNK-6 (IL-2 2.5 ng/mL) [10] = assay: as above; conditions: 72 h
NK-YS (IL-2 2.5 ng/mL) [11] = assay: as above; conditions: 72 h
KHYG-1 (IL-2 2.5 ng/mL) [12] = assay: as above; conditions: 72 h
KAI3 (IL-2 2.5 ng/mL) [13] = assay: as above; conditions: 72 h
NKL (IL-2 2.5 ng/mL) [14] = assay: as above; conditions: 72 h
DERL-7 (IL-2 2.5 ng/mL) [15] = assay: as above; conditions: 72 h
IMC-1 (IL-2 20 ng/mL) [16] = assay: drug sensitivity score (DSS) (DSS units); higher = more sensitive; extreme values may be limits of the assay; conditions: 72 h
[17] = test system: normal primary NK cells, pool 2 (3 donors) (IL-2 2.5 ng/mL); assay: as above; conditions: 72 h
[18] = test system: normal primary NK cells, pool 3 (3 donors) (IL-2 2.5 ng/mL); assay: as above; conditions: 72 h
YT (IL-2 2.5 ng/mL) [19] = assay: as above; conditions: 72 h
NK-92 (IL-2 2.5 ng/mL) [20] = assay: as above; conditions: 72 h
[21] = test system: normal primary NK cells, pool 1 (3 donors), resting (IL-2 0 ng/mL); assay: as above; conditions: 72 h
[22] = test system: normal primary NK cells, pool 1 (3 donors) (IL-2 2.5 ng/mL); assay: as above; conditions: 72 h
SNK-6 (IL-2 2.5 ng/mL) [23] = assay: as above; conditions: 72 h
NK-YS (IL-2 2.5 ng/mL) [24] = assay: as above; conditions: 72 h
KHYG-1 (IL-2 2.5 ng/mL) [25] = assay: as above; conditions: 72 h
KAI3 (IL-2 2.5 ng/mL) [26] = assay: as above; conditions: 72 h
NKL (IL-2 2.5 ng/mL) [27] = assay: as above; conditions: 72 h
DERL-7 (IL-2 2.5 ng/mL) [28] = assay: as above; conditions: 72 h

CS(=O)(=O)N1CCc2c(-c3cnc(N)nc3)nc(N3CCOCC3)nc21 (max concentration tested 10000 nM)
percent inhibition of viability [%]
Conditions | 1 nM | 10 nM | 100 nM | 1000 nM | 10000 nM
DERL-7 (IL-2 2.5 ng/mL) [15] | -3.09 | -4.08 | 3.85 | 42.4 | 85.6
IMC-1 (IL-2 20 ng/mL) [3] | -0.46 | 0.95 | 2.38 | -7.5 | -15.8
KAI3 (IL-2 2.5 ng/mL) [13] | 7.02 | 7.63 | 15.1 | 29.3 | 51.8
KHYG-1 (IL-2 2.5 ng/mL) [12] | 4.51 | -0.98 | -0.03 | 9.84 | 39.7
NK-92 (IL-2 2.5 ng/mL) [7] | -5.62 | -3.32 | 15.7 | 40.8 | 55.8
NK-YS (IL-2 2.5 ng/mL) [11] | 4.61 | 0.28 | 4.3 | 32.1 | 62.7
NKL (IL-2 2.5 ng/mL) [14] | 14.7 | 9.02 | 17.7 | 40.3 | 71.3
SNK-6 (IL-2 2.5 ng/mL) [10] | -21.9 | -10.1 | -16.1 | 5.8 | 44.2
YT (IL-2 2.5 ng/mL) [6] | 2.76 | 1.12 | 1.06 | 26.2 | 75.4
[1] | -0.53 | -3.07 | 3.27 | 24.3 | 52.9
[4] | -2.54 | -3.72 | -0.24 | 21.6 | 34.8
[5] | -11.3 | -9.29 | 13 | 19.5 | 28.9
[8] | -25.7 | -37.9 | 3.84 | -1.15 | 14.8
[9] | -5.22 | -10.5 | 16.6 | 24.4 | 35.2

Conditions | drug sensitivity score
DERL-7 (IL-2 2.5 ng/mL) [28] | 9.77
IMC-1 (IL-2 20 ng/mL) [16] | 0
KAI3 (IL-2 2.5 ng/mL) [26] | 7.4
KHYG-1 (IL-2 2.5 ng/mL) [25] | 3.5
NK-92 (IL-2 2.5 ng/mL) [20] | 9.23
NK-YS (IL-2 2.5 ng/mL) [24] | 7.16
NKL (IL-2 2.5 ng/mL) [27] | 10.4
SNK-6 (IL-2 2.5 ng/mL) [23] | 3.23
YT (IL-2 2.5 ng/mL) [19] | 7.87
[2] | 5.59
[17] | 4.2
[18] | 4.2
[21] | 0.17
[22] | 5.87

COc1ccc(-c2ccc3ncc4c(c3c2)n(-c2ccc(N3CCNCC3)c(C(F)(F)F)c2)c(=O)n4C)cn1 [NVP-BGT226] (max concentration tested 1000 nM)
percent inhibition of viability [%]
Conditions | 0.1 nM | 1 nM | 10 nM | 100 nM | 1000 nM
DERL-7 (IL-2 2.5 ng/mL) [15] | -4.47 | 7.95 | 55.7 | 89 | 99.7
IMC-1 (IL-2 20 ng/mL) [3] | -2.15 | -4.82 | -34.6 | 55.1 | 97.2
KAI3 (IL-2 2.5 ng/mL) [13] | -0.77 | 1.29 | 25.3 | 57.2 | 94.7
KHYG-1 (IL-2 2.5 ng/mL) [12] | -2.44 | 1.07 | 4.41 | 76.8 | 95.9
NK-92 (IL-2 2.5 ng/mL) [7] | -5 | -4.68 | 24.6 | 74.2 | 96.2
NK-YS (IL-2 2.5 ng/mL) [11] | -4.92 | -1.99 | 27.6 | 76.4 | 95.7
NKL (IL-2 2.5 ng/mL) [14] | -10.6 | -18.4 | 35.3 | 51.1 | 93.4
SNK-6 (IL-2 2.5 ng/mL) [10] | 8.89 | 4.85 | 13.6 | 64.3 | 98.2
YT (IL-2 2.5 ng/mL) [6] | -4.65 | -0.4 | 10.2 | 53.6 | 74.2
[1] | -0.83 | 1.88 | 18.5 | 46.3 | 99.4
[4] | -6.87 | 0.35 | 13.2 | 39 | 99.7
[5] | -7.84 | -7.37 | 7.07 | 21.4 | 98.8
[8] | 5.35 | -4.97 | 14.6 | 59.2 | 99
[9] | -4.63 | -3.38 | 9.25 | 46.3 | 99

Conditions | drug sensitivity score
DERL-7 (IL-2 2.5 ng/mL) [28] | 24
IMC-1 (IL-2 20 ng/mL) [16] | 11.9
KAI3 (IL-2 2.5 ng/mL) [26] | 14.1
KHYG-1 (IL-2 2.5 ng/mL) [25] | 14.8
NK-92 (IL-2 2.5 ng/mL) [20] | 16.7
NK-YS (IL-2 2.5 ng/mL) [24] | 17.5
NKL (IL-2 2.5 ng/mL) [27] | 13.7
SNK-6 (IL-2 2.5 ng/mL) [23] | 14.1
YT (IL-2 2.5 ng/mL) [19] | 11.3
[2] | 11.6
[17] | 9.95
[18] | 8.86
[21] | 13.2
[22] | 10.9

Source: the supplement of paper PMC5908809
